Experiment [1] concerns the target WT LacY (Escherichia coli, UniProt P02920). Nature of the experiment: ITC, sugar. The class given is binding. On the technique in general: ITC needs no label: the signal is the heat of the interaction.
Another experiment deals with WT:Nb-9036 (Escherichia coli, UniProt P02920). Kind of experiment: ITC, α-NPG binding to WT LacY:Nb-9036 complex.
The next experiment deals with Mutant:Nb-9036 (Escherichia coli, UniProt P02920, G262W/G46W). Nature of the experiment: ITC, α-NPG binding to double-Trp mutant:Nb-9036 complex.
The target in a further experiment is Mutant:Nb-9065 (Escherichia coli, UniProt P02920, G262W/G46W). Nature of the experiment: ITC, α-NPG binding to double-Trp mutant:Nb-9065 complex.
The next experiment deals with WT:Nb-9065 (Escherichia coli, UniProt P02920). Nature of the experiment: ITC, α-NPG binding to WT LacY:Nb-9065 complex.
Experiment [2] has as its target Double-Trp mutant (G46W/G262W LacY) (Escherichia coli, UniProt P02920, G262W/G46W). Nature of the experiment: ITC, α-NPG binding to double-Trp mutant LacY. The conditions noted are these: ITC at 25 °C; no Nb.
The next experiment deals with T1, WT LacY:Nb-9065 (Escherichia coli, UniProt P02920).
T1 sequence (P02920 whole entry, looked up): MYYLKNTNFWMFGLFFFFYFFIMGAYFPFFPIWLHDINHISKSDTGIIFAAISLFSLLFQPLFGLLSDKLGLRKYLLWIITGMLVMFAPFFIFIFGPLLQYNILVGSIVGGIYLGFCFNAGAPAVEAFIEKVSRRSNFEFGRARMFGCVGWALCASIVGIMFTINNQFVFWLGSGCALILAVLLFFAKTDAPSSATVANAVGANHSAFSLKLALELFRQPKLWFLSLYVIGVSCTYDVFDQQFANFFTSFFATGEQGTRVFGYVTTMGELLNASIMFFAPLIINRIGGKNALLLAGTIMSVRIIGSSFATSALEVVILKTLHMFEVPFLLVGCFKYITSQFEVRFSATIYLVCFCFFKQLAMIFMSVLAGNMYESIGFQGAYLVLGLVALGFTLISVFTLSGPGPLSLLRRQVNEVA
The conditions noted are these: WT pre-equilibrated with Nb-9065; 10 mM melibiose.

For another experiment, the target named is T2, WT LacY:Nb-9036 (Escherichia coli, UniProt P02920).
T2 sequence (P02920 whole entry, looked up): T1 sequence (P02920 whole entry, looked up)
Kind of experiment: ITC, IIA^Glc titration of WT LacY:Nb-9036 complex. In kind it is binding. The conditions noted are these: WT pre-equilibrated with Nb-9036; 10 mM melibiose.

Experiment [3] deals with T3, WT LacY (Escherichia coli, UniProt P02920).
T3 sequence (P02920 whole entry, looked up): T1 sequence (P02920 whole entry, looked up)
Particulars: cytoplasmic face of the WT; cited from earlier work.

The next experiment has as its system double-Trp mutant. The conditions noted are these: cited from earlier work.
In experiment [4] the target is T4, lactose permease of Escherichia coli (LacY), wild type (Escherichia coli, UniProt P02920 1-417).
T4 sequence: T1 sequence (P02920 whole entry, looked up)
Kind of experiment: ITC.

The mark [5] stands for this setting: ITC at 25 °C, WT pre-incubated with Nb-9036.
[6] abbreviates: difference in the absence and presence of Nb-9036, WT.
[7] abbreviates: difference in the absence and presence of Nb-9036, WT, listed as galactoside.
[8] abbreviates: ITC at 25 °C, mutant pre-incubated with Nb-9036.
The mark [9] stands for this setting: difference in the absence and presence of Nb-9036, mutant.
Setting [10] is: difference in the absence and presence of Nb-9036, mutant, listed as galactoside.
Where [11] appears, read: ITC at 25 °C, mutant pre-incubated with Nb-9065.
[12] abbreviates: difference in the absence and presence of Nb-9065, mutant.
The mark [13] stands for this setting: ITC at 25 °C, WT pre-incubated with Nb-9065.
Setting [14] is: difference in the absence and presence of Nb-9065, WT.

The source of these data is PMC6478161 (Biochemistry, 2016).

“And” between values parts separate entries of the source, which are not always exact repeats. Equal entries are not always repeated.

Sequence of Double-Trp mutant (G46W/G262W LacY) (P02920 whole entry G46W/G262W): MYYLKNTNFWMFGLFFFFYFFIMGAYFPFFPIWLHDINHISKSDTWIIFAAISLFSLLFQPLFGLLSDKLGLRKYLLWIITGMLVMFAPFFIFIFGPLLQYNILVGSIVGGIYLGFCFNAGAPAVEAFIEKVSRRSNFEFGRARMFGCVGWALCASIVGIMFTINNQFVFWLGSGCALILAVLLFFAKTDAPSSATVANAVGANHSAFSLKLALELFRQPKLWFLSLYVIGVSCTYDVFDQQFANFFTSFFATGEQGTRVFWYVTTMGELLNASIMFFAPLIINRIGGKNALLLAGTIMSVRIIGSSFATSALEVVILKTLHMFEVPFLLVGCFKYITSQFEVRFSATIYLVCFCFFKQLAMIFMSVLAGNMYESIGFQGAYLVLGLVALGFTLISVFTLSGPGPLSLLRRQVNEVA
Sequence of Mutant:Nb-9065 (P02920 whole entry G46W/G262W): as above
Sequence of Mutant:Nb-9036 (P02920 whole entry G46W/G262W): as above

Consider `O=[N+]([O-])c1ccc(O[C@H]2O[C@H](CO)[C@@H](O)[C@H](O)[C@H]2O)cc1` [nitrophenyl-α-D-glucopyranoside], for which the “titration thermogram (control)” value at WT LacY [1] (ITC, 1 mM injected into WT LacY) is “small, relatively flat thermogram”.

The Kd is the equilibrium constant for the complex coming apart. In the case of `O=[N+]([O-])c1ccc(O[C@H]2O[C@H](CO)[C@H](O)[C@H](O)[C@H]2O)cc1` [α-NPG, p-nitrophenyl-α-D-galactopyranoside], the “-TΔS” value on WT:Nb-9036 (setting [5]) is reported as 17.2 (0.5) kJ/mol; at Mutant:Nb-9036 (setting [8]) it was 34.2 (2.9) kJ/mol; at Mutant:Nb-9065 (setting [11]), 12.43 (0.9) kJ/mol; on WT LacY [1] (ITC at 25 °C, no Nb) it was −10.3 (3.6) kJ/mol; at WT:Nb-9065 (setting [13]) it was 21.0 (1.7) kJ/mol; in [2], 11.8 (0.3) kJ/mol. Besides, the Kd was ~300 nM and 300 nM on WT:Nb-9036 (setting [5]); ~300 nM and 300 nM at Mutant:Nb-9036 (setting [8]); 7.1 µM on Mutant:Nb-9065 (setting [11]); 28.8 µM at WT LacY [1] (ITC at 25 °C, no Nb); 5.7 µM on WT:Nb-9065 (setting [13]); 5 µM in experiment [2]. Further, the “N (stoichiometry)” value at WT:Nb-9036 (setting [5]) is recorded as 0.5 (0.1); on Mutant:Nb-9036 (setting [8]) it was 0.6 (0.0); on Mutant:Nb-9065 (setting [11]) it was 0.4 (0.0); on WT LacY [1] (ITC at 25 °C, no Nb), 0.6 (0.1); at WT:Nb-9065 (setting [13]), 0.5 (0.0); in experiment [2], 0.5 (0.0). For the same molecule, the ΔG is on record as −37.1 (0.6) kJ/mol on WT:Nb-9036 (setting [5]); −37.5 (0.4) kJ/mol at Mutant:Nb-9036 (setting [8]); −29.4 (0.2) kJ/mol on Mutant:Nb-9065 (setting [11]); −25.9 (0.2) kJ/mol at WT LacY [1] (ITC at 25 °C, no Nb); −30.0 (0.1) kJ/mol at WT:Nb-9065 (setting [13]); −30.3 (0.3) kJ/mol in experiment [2]. In addition, the ΔH at WT:Nb-9036 (setting [5]) is reported as −54.3 (1.1) kJ/mol; on Mutant:Nb-9036 (setting [8]) it was −71.7 (2.5) kJ/mol; on Mutant:Nb-9065 (setting [11]) it was −41.8 (1.05) kJ/mol; at WT LacY [1] (ITC at 25 °C, no Nb) it was −15.6 (3.4) kJ/mol; at WT:Nb-9065 (setting [13]) it was −51.0 (1.8) kJ/mol; in experiment [2], −42.1 (0.0) kJ/mol. Further, the “fold decrease in Kd (increase in affinity) by Nb” value on WT:Nb-9036 (Nb-9036:WT complex versus WT alone) was approximately 96 fold; at Mutant:Nb-9036 (Nb-9036:mutant complex versus mutant alone), approximately 19 fold. In addition, the ΔΔG entry on WT:Nb-9036 (setting [6]) is “[−11.2 ^**] kJ/mol”; at Mutant:Nb-9036 (setting [9]), “[−7.2 ^**] kJ/mol”; at Mutant:Nb-9065 (setting [12]) it was “[0.9^ns] kJ/mol”; on WT:Nb-9065 (setting [14]), “[−4.1 ^**] kJ/mol”. The ΔΔH entry at WT:Nb-9036 (setting [6]) was “[−38.7 ^**] kJ/mol”; at WT:Nb-9036 (setting [7]), -38.7 kJ/mol; at Mutant:Nb-9036 (setting [9]), “[−29.6 ^**] kJ/mol”; at Mutant:Nb-9036 (setting [10]) it was -29.6 kJ/mol; on Mutant:Nb-9065 (setting [12]) it was “[0.3^ns] kJ/mol”; at WT:Nb-9065 (setting [14]) it was “[−35.4 ^*] kJ/mol”. Further, the “−TΔΔS” value was “[27.5 ^*] kJ/mol” on WT:Nb-9036 (setting [6]); 27.5 kJ/mol on WT:Nb-9036 (setting [7]); “[22.4 ^*] kJ/mol” on Mutant:Nb-9036 (setting [9]); 22.4 kJ/mol on Mutant:Nb-9036 (setting [10]); “[0.6^ns] kJ/mol” at Mutant:Nb-9065 (setting [12]); “[31.3 ^*] kJ/mol” on WT:Nb-9065 (setting [14]). The “change in Kd by Nb” value at Mutant:Nb-9065 (Nb-9065:mutant complex versus mutant alone) is “no detectable change”. At WT:Nb-9065 (Nb-9065:WT complex versus WT alone), the “fold decrease in Kd by Nb” value was 4 fold.

In the case of “IIA^Glc: a phosphotransferase protein of the glucose-specific phosphoenolpyruvate:carbohydrate phosphotransferase system (E. coli, unphosphorylated)”, the “IIA^Glc binding (thermogram)” value with WT LacY:Nb-9065 and with WT LacY:Nb-9036 was “no IIA^Glc binding” throughout. Besides, in the experiment with WT LacY [3], the “heat of IIA^Glc binding” value is listed as “endothermic”. In addition, in the experiment with double-Trp mutant, the “IIA^Glc binding” value is reported as “does not bind”.

B1: IIA^Glc, phosphotransferase protein of the glucose-specific phosphoenolpyruvate:carbohydrate phosphotransferase system (natural protein, E. coli, UniProt P69783 1-169, looked up)
chain: MGLFDKLKSLVSDDKKDTGTIEIIAPLSGEIVNIEDVPDVVFAEKIVGDGIAIKPTGNKMVAPVDGTIGKIFETNHAFSIESDSGVELFVHFGIDTVELKGEGFKRIAEEGQRVKVGDTVIEFDLPLLEEKAKSTLTPVVISNMDEIKELIKLSGSVTVGETPVIRIKK
As to B1, in [4], the binding result is given as “binds”.
